This series relates to adult male Sprague Dawley rats. Briefly: appetite suppressant activity on scheduled fed rat model of appetite. Type of series: in vivo. The following applies: 20 μmol/kg, by oral route; for decrease in food intake as compared to food intake in the control group: fat rich diet 3 h daily, 30 min prior to food; for change in gross behaviour: observed during the period of feeding. As for the experimental part:
The pharmacological evaluation of the test compounds of general formula 3 was carried out by the following protocol.
The appetite suppressant activity of test compounds was tested on scheduled fed rat model of appetite. The study was conducted in adult male Sprague Dawley rats, weighing 175-200 g on arrival). The animals were housed in transparent cages of Bayer Makrolon type 3118 measuring 425×266×180 with floor area 800 cm^2. In each cage one rat was kept. A special fat rich diet (Diet #12451, Research Diets, NJ, USA) was provided only for 3 h (11 am-2 pm) daily [no diet in rest of the period]. Water was provided for 24 h. Diet was weighed prior to and after observation period by an electronic [Digital display] balance. Food intake was recorded by calculating the difference between prior and after weight of diet. Rats were weighed weekly after feeding. Rats were provided 16 g of diet daily and within 12-14 days animals achieved base line food intake (12-14 g) with gain in body weight (230-250 g) indicating adaptation to scheduled feeding. Only those rats that adapted to schedule feeding were used in the study. Rat showing significant less food intake and weight gain as compared to others was excluded from the study.
Thereafter, tests compounds dissolved in 10% DMSO aqueous solution and given in dose of 20 μmol/kg, by oral route. The test compounds were administered 30 min prior to food. Each test compounds were given in 5 rats. Diet and water was weighed at hourly interval in control and compound treated rats. During the period of feeding the gross behavior of rat was also observed.
The significance of difference between the food intake of treated and control groups was determined by unpaired Student's test [Two tailed p value].

“Also recorded” adds a separate entry of the source.

Consider `CC(C)CC(N(C)C)C1(c2ccc(Cl)cc2)CCC1` (centres unmarked) [Sibutramine, reference compound], for which the “decrease in food intake as compared to food intake in the control group” value (shortened to “decrease in food intake”) came to 38.57%.
Consider `O=C(NCCc1ccccc1)NCC(O)COc1ccc(C(F)(F)F)cc1` (centres unmarked) [compound 3a, N-[2-hydroxy-3-(4-trifluoromethylphenoxy)propyl]-N′-2-phenethyl-urea], for which the “activity compared with Sibutramine” value is reported as “comparable; also recorded: same activity as Sibutramine”, the “change in water intake” value is “did not cause any significant change”, the “change in gross behaviour” value is “did not cause any significant change” and the “decrease in food intake” value was 41.42%.
With `COc1ccc(OCC(O)CNC(=O)NCCc2ccccc2)cc1` (centres unmarked) [compound 3j, N-[2-hydroxy-3-(4-methoxyphenoxy)propyl]-N′-2-phenethyl-urea], the “change in water intake” value was “did not cause any significant change”, the “change in gross behaviour” value is “did not cause any significant change” and the “decrease in food intake” value is given as 31.82%.
Regarding `OC(CNC(=S)NCCc1ccccc1)COc1ccc(C(F)(F)F)cc1` (centres unmarked) [compound 3n, N-[2-hydroxy-3-(4-trifluoromethylphenoxy)propyl]-N′-2-phenethyl-thiourea], the “change in water intake” value is recorded as “did not cause any significant change”, the “change in gross behaviour” value was “did not cause any significant change” and the “decrease in food intake” value was found to be 28.4%.

The record behind these values is patent US6962945B2, “N-aryloxypropanolyl-N′-phenethyl-urea” (Council of Scientific and Industrial Research, priority 2004, dated 2005).
